{
  "source": "patent US8772274B1",
  "about": "“Anti-cancer compositions and methods” (The Penn State Research Foundation, priority 2008, dated 2014)",
  "key": {"[1]": {"system": "A549 lung adenocarcinoma cells", "assay": "MTS cell viability assay, A549", "assay_type": "cell-based, human", "description": "(§1) Growth inhibitory effects on cultured cells from human vertical growth phase (VGP) melanoma cell line WM115, Lung adenocarcinoma (A549), fibrosarcoma (HT-1080), prostate adenocarcinoma (PC-3), ovarian carcinoma (OVCAR-3), and breast adenocarcinoma (MDA-MB-231) are plated in 96 well plates at a density of 5×10^3 cells/well in 100 μl media. […] Dose response curves for each compound are generated and the IC50 values (μM) determined using GraphPad Prism software. Each experiment is replicated at least 3 times and the average IC50 (μM) values with standard error represented."}, "[2]": {"system": "HCT-116 colorectal adenocarcinoma cells", "assay": "MTS cell viability assay, HCT-116", "assay_type": "cell-based", "settings": "Homo sapiens; HCT-116; 24-72 hours; MTS; read-out: Inhibition of growth IC50, HCT-116 (Table II)"}, "[3]": {"system": "MDA-MB-231 breast adenocarcinoma cells", "assay": "MTS cell viability assay, MDA-MB-231", "assay_type": "cell-based, human", "description": "as §1"}, "[4]": {"system": "WM35-GFP and UACC 903-GFP melanoma tumors in reconstructed skin", "assay": "Topical treatment of skin reconstructs containing melanoma cells", "assay_type": "cell-based, human", "settings": "8 days", "protocol": "Generation of skin containing melanocytic lesions is briefly described. […] Mixture is then aliquoted into 6 or 12 well plates and incubated at 37° C. for 3 hours. […] One milliliter of cell suspension is added to each well on top of the dermal layer. Following two days growth, reconstructed skin is transferred onto wire grids and fed via diffusion from E-media below the platforms.\nSkin reconstructs containing melanoma cells are treated topically with increasing concentrations (5, 10, 15 and 20 μM in 200 μL PBS) of PBIT or PBISe. Eight days later control vehicle PBS treated, PBIT and PBISe exposed skins are fixed in paraformaldehyde and stored in 0.5% EDTA.\nBeginning on day 8 of culture, the reconstructed skins containing melanoma tumors are treated with increasing concentrations of PBISe (5, 10, 15 and 20 μM) or PBIT (15 and 20 μM) in 200 μL of vehicle PBS for 8 days and the size of developing tumors, in terms of area occupied by GFP, is measured using fluorescence microscopy."}, "[5]": {"system": "HT-1080 fibrosarcoma cells", "assay": "MTS cell viability assay, HT-1080", "assay_type": "cell-based, human", "description": "as §1"}, "UACC 903 melanoma cells [6]": {"system": "UACC 903 melanoma cells", "assay": "Cell cycle analysis (propidium iodide, FACScan)", "assay_type": "cell-based", "settings": "3.5 to 21 μM; 24 hours", "protocol": "Cell cycle analysis is undertaken by growing 1.5×10^6 melanoma cells in 100-mm culture dishes followed by treatment with PBIT or PBISe (3.5 to 21 μM) for 24 hours. Cells are collected and stained using propidium iodide (100 μg/mL; Sigma, St Louis, Mo.), 20 μg/mL Ribonuclease A (Roche, Indianapolis, Ind.) 3 μg/mL Triton X-100 dissolved in 0.1% (W/V) sodium citrate for 30 minutes at 4° C. (Krishan, A., J Cell Biol 1975; 66:188-93). Stained cells are analyzed using the FACScan analyzer (Becton Dickinson, San Jose, Calif.) and data processed using ModFit LT software (Verity Software House, Topsham, Me.)."}, "[7]": {"system": "normal human fibroblast cells (FF2441)", "assay": "MTS cell viability assay, normal fibroblasts", "assay_type": "cell-based", "settings": "Homo sapiens, FF2441, read-out: Inhibition of growth IC50, Fibroblast cells (FF2441) (Table II)", "description": "5×10^3 cells per well in 100 μl DMEM-10% FBS are grown in a 96-well plate for 36 or 72 hours, respectively for melanoma (UACC 903, 1205 Lu and WM115) and human fibroblast (FF2441) cell lines and treated with either PBS vehicle or increasing concentrations (3.5-21 μM) of PBIT, PBISe, PEIT or PEISe for 24 hours. Cellular viability compared to control treated cells is measured using the MTS assay (Promega, Madison, Wis.). IC50 (μM) values for each compound in respective cell lines is determined from three independent experiments using GraphPad Prism version 4.01 (GraphPad, San Diego, Calif.), bars, SEM.\nViability of colon adenocarcinoma cells (Caco-2, HT 29, HCT 116, SW 480) and normal fibroblast cells (FF2441) treated with PBIT (1), PBISe (2), PEIT (3) or PEISe (4) is compared. The IC50 value is evaluated by treating with increasing concentrations of PBIT, PEIT, PEISe (10-100 μM) or PBISe (1.6-50 μM) for 24-72 hours and the number of viable cell are quantified using MTS (Promega, Wis.)."}, "[8]": {"system": "1205Lu melanoma cell line", "assay": "MTS cell viability assay, 1205Lu", "assay_type": "cell-based", "settings": "Homo sapiens; 1205Lu melanoma; 24 hours treatment; MTS; read-out: IC50, 1205Lu (Table I)", "description": "Cellular viability compared to control treated cells is measured using the MTS assay (Promega, Madison, Wis.)."}, "UACC 903 melanoma cells [9]": {"system": "UACC 903 melanoma cells", "assay": "Apoptosis, Apo-ONE caspase-3/7 assay", "assay_type": "cell-based", "protocol": "[…] Proliferation and apoptosis rates are measured using a BrdU ELISA kit (Roche Applied Sciences, Indianapolis, Ind.) and Apo-ONE Homogenous caspase-3/7 Assay kit (Promega, Madison, Wis.), respectively, (Madhunapantula S V, et al., Cancer Res 2007; 67:3626-36)."}, "UACC 903 melanoma tumors [10]": {"system": "UACC 903 melanoma tumors", "assay": "Tumorigenicity assessment, UACC 903 xenograft, i.p. treatment", "assay_type": "in vivo, nude mice", "settings": "day 24; i.p. 0.315 moles (2.5 ppm selenium) Monday, Wednesday, Friday for 3 weeks", "protocol": "Tumor kinetics are measured by subcutaneous injection of 5×10^6 UACC 903 or 2.5×10^61205 Lu cells in 0.2 ml of DMEM containing 10% FBS above left and right rib cages of 4-6 week old female nude mice (Harlan Sprague Dawley, Indianapolis, Ind.). Six days later, a fully vascularized tumor has developed and mice are randomly placed in control DMSO or experimental (PBIT or PBISe) groups (n=5 animals; 10 tumors total) followed by i.p. treatment with PBIT ([…]) or PBISe ([…]; equivalent to 2.5 ppm selenium per 20 g mouse) on Monday, Wednesday and Friday for 3 weeks. Dimensions of developing tumors and body weight are measured."}, "[11]": {"system": "A549, Caco-2, HT-1080, PC-3, OVCAR-3, MDA-MB-231, WM115", "assay": "MTS viability, all cancer cell lines tested (summary)", "assay_type": "cell-based, human", "description": "as §1"}, "[12]": {"system": "OVCAR-3 ovarian carcinoma cells", "assay": "MTS cell viability assay, OVCAR-3", "assay_type": "cell-based, human", "description": "as §1"}, "[13]": {"system": "Caco-2 colon adenocarcinoma cells", "assay": "MTS cell viability assay, Caco-2", "description": "In vitro inhibitory efficacy is measured using 3-(4,5-dimethylthiazol-2-yl)-5-(3-carboxymethoxyphenyl)-2-(4-sulfophenyl)-2H-tetrazolium (MTS) assay (Promega, Madison, Wis.). […] Cells are treated with either vehicle control, PBS, PBIT (40-120 μM) or PBISe (2.4-10 μM) for 72 h. The percentages of viable cells compared to control PBS treated cells are determined using MTS assay and IC50 values calculated using GraphPad Prism version 4.01 (GraphPad software, San Diego, Calif.). An IC50 value for each compound is determined by at least three independent experiments and represented with a standard error.\nThe IC50 value is evaluated by treating with increasing concentrations of PBIT, PEIT, PEISe (10-100 μM) or PBISe (1.6-50 μM) for 24-72 hours and the number of viable cell are quantified using MTS (Promega, Wis.)."}, "UACC 903 melanoma tumors [14]": {"system": "UACC 903 melanoma tumors", "assay": "Topical application on melanoma tumor growth in vivo", "settings": "topical daily 0.0945 umoles (1.5 ppm selenium, 5.12 mg/kg); day 17 through day 29", "description": "UACC 903 melanoma cells (0.25×10^5/site) are subcutaneously injected into left and right flanks of 4-6 weeks old female nude mice (n=4) and 24 h later PBIT, PBISe (0.0945 umoles, 1.5 ppm selenium equivalent to 5.12 mg/kg body weight) or vehicle control (acetone) is applied topically for 29 days. Sizes of developing tumors are measured and average sizes±S.E.M. (in mm^3) plotted. A minimum of 5 mice per group is used for the topical treatment."}, "UACC 903 melanoma cells [15]": {"system": "UACC 903 melanoma cells", "assay": "Cellular proliferation, BrdU ELISA", "assay_type": "cell-based", "settings": "2 μM, 24 hours", "protocol": "Cellular proliferation and apoptosis rates are measured by seeding 5×10^3 cells in 96-well plates, followed by treatment for 24 hours with PBISe or PBIT (0.5-10.5 μM). Proliferation and apoptosis rates are measured using a BrdU ELISA kit (Roche Applied Sciences, Indianapolis, Ind.) and Apo-ONE Homogenous caspase-3/7 Assay kit (Promega, Madison, Wis.), respectively, (Madhunapantula S V, et al., Cancer Res 2007; 67:3626-36)."}},
  "note": "Structures can show the parent of a compound that is named as a salt. Where two headings read alike, the source gives them in different places.",
  "data": [
    {"smiles": "N=C(N)[Se]CCc1ccc(CC[Se]C(=N)N)cc1", "note": "[PBISe, s,s′-1,4-phenylene-bis(1,2-ethanediyl)bis-isoselenourea dihydrobromide]", "values": [
      {"measurement": "IC50", "setting": "[1]; Homo sapiens, A549, 24 h, read-out: Inhibition Cancer Cells IC50, A549 (Table III)", "value": "4.2 ± 0.58", "unit": "µM"},
      {"measurement": "Fold increase in efficacy (PBIT/PBISe), A549", "setting": "[1]; ratio of IC50 PBIT/PBISe, A549", "value": ">23.8", "unit": "fold"},
      {"measurement": "IC50", "setting": "[2]", "value": "4.72 ± 0.44", "unit": "µM"},
      {"measurement": "IC50", "setting": "[3]; Homo sapiens, MDA-MB-231, 24 h, read-out: Inhibition Cancer Cells IC50, MDA-MB-231 (Table III)", "value": "6 ± 0.54", "unit": "µM"},
      {"measurement": "Fold increase in efficacy (PBIT/PBISe), MDA-MB-231", "setting": "[3]; ratio of IC50 PBIT/PBISe, MDA-MB-231", "value": ">16.7", "unit": "fold"},
      {"measurement": "morphology of constituent cells of skin reconstructs", "setting": "[4]; 20 uM topical, H&E", "value": "no toxicity"},
      {"measurement": "difference in tumor size compared to vehicle PBS control and PBIT treated skins", "setting": "[4]; 15 and 20 μM, topical, area occupied by GFP, WM35 and UACC 903", "value": "80-90%"},
      {"measurement": "IC50", "setting": "[5]; Homo sapiens, HT-1080, 24 h, read-out: Inhibition Cancer Cells IC50, HT-1080 (Table III)", "value": "3.2 ± 0.61", "unit": "µM"},
      {"measurement": "Fold increase in efficacy (PBIT/PBISe), HT-1080", "setting": "[5]; ratio of IC50 PBIT/PBISe, HT-1080", "value": ">31.2", "unit": "fold"},
      {"measurement": "increase in G2/M cells", "setting": "UACC 903 melanoma cells [6]", "value": "~3", "unit": "fold"},
      {"measurement": "sub G0/G1 population", "setting": "UACC 903 melanoma cells [6]", "value": "increased"},
      {"measurement": "IC50", "setting": "[7]", "value": "17.1 ± 0.59", "unit": "µM"},
      {"measurement": "IC50", "setting": "[8]", "value": "9.8 ± 0.7", "unit": "µM"},
      {"measurement": "caspase-3/7 activity", "setting": "UACC 903 melanoma cells [9]; UACC 903, increasing concentrations up to 10.5 μM, 24 hours, compared to PBIT", "value": "elevated"},
      {"measurement": "cell death at higher doses", "setting": "UACC 903 melanoma cells [9]; doses higher than 10.5 μM", "value": "> 80", "unit": "%"},
      {"measurement": "difference in tumor volume compared to control DMSO or PBIT, UACC 903", "setting": "UACC 903 melanoma tumors [10]", "value": "~30", "unit": "%"},
      {"measurement": "fold more potent at decreasing cell viability compared to PBIT, all cancer cell lines tested", "setting": "[11]; A549, Caco-2, HT-1080, PC-3, OVCAR-3, MDA-MB-231, WM115", "value": "> 10", "unit": "fold"},
      {"measurement": "IC50", "setting": "[11]; Homo sapiens, read-out: concentration decreasing cell viability by 50% (IC50), cancer cell lines of Table III", "value": "8 to 10", "unit": "µM"},
      {"measurement": "IC50", "setting": "[12]; Homo sapiens, OVCAR-3, 24 h, read-out: Inhibition Cancer Cells IC50, OVCAR-3 (Table III)", "value": "5.3 ± 0.65", "unit": "µM"},
      {"measurement": "Fold increase in efficacy (PBIT/PBISe), OVCAR-3", "setting": "[12]; ratio of IC50 PBIT/PBISe, OVCAR-3", "value": ">18.9", "unit": "fold"},
      {"measurement": "increase in potency compared to PBIT", "setting": "[13]; Caco-2, 72 h, MTS", "value": 25, "unit": "fold"},
      {"measurement": "cells killed", "setting": "[13]; Caco-2, PBISe at 2-4 μM", "value": "> 80", "unit": "%"},
      {"measurement": "Fold increase in efficacy (PBIT/PBISe), Caco-2", "setting": "[13]; ratio of IC50 PBIT/PBISe, Caco-2", "value": "~24.7", "unit": "fold"},
      {"measurement": "IC50", "setting": "[13]; read-out: IC50, Caco-2 colon adenocarcinoma cells, Caco-2, 72 h, MTS", "value": 2.4, "unit": "µM"},
      {"measurement": "IC50", "setting": "[13]; read-out: Inhibition Cancer Cells IC50, Caco-2 (Table III), Caco-2 colorectal adenocarcinoma, MTS", "value": "2.4 ± 0.43", "unit": "µM"},
      {"measurement": "IC50", "setting": "[13]; read-out: Inhibition of growth IC50, Caco-2 (Table II), Caco-2, 24-72 hours, MTS", "value": "2.4 ± 0.43", "unit": "µM"},
      {"measurement": "decrease in tumor volume versus vehicle acetone or PBIT treated mice", "setting": "UACC 903 melanoma tumors [14]", "value": 50, "unit": "%"},
      {"measurement": "reduction of cellular proliferative capacity compared to PBS vehicle or PBIT treated cells", "setting": "UACC 903 melanoma cells [15]", "value": "~90", "unit": "%"}
    ]}
  ]
}
